According to US20210045385A1, “PYRIDAZINONE-SUBSTITUTED KETOXIMES AS HERBICIDES” (FMC Corporation, priority 2018, published 2021):

Assays:
Format in all cases: in vivo
[1] = tested on: ducksalad (Heteranhera limosa); test: Test B flooded paddy test, visual plant response rating; conditions: 250 g ai/ha, Flood, applied to paddy water, 2-leaf stage, evaluated after 13 to 15 days
Method in brief: (§1)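 2-leaf plants; pots flooded 3 cm over soil surface; compound dosed straight into the floodwater; depth kept constant; greenhouse 13–15 d; visual rating vs. untreated controls.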

[2] = tested on: sedge, umbrella (small-flower umbrella sedge, Cyperus difformis); test: as above; conditions: 250 g ai/ha, Flood, applied to paddy water, 2-leaf stage, evaluated after 13 to 15 days
Method in brief: as §1

rice (Oryza sativa) = test: as above; conditions: 250 g ai/ha, Flood, applied to paddy water, 2-leaf stage, evaluated after 13 to 15 days
Method in brief: as §1

[3] = tested on: barnyardgrass (Echinochloa crus-galli); test: as above; conditions: 250 g ai/ha, Flood, applied to paddy water, 2-leaf stage, evaluated after 13 to 15 days
Method in brief: as §1

[4] = tested on: foxtail, giant (giant foxtail, Setaria faberii); test: Test A preemergence, visual plant response rating; conditions: for Foxtail, Giant plant response rating: 125 g ai/ha, preemergence, 0 to 100 scale, 0 no effect, 100 complete control; for Foxtail, Giant plant response rating (0 to 100 scale): approx. 10 days
Method in brief: (§2)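 Formulated in a non-phytotoxic solvent mixture including surfactant, each test chemical was sprayed onto the soil surface after sowing, or onto seedlings 2 to 10 cm high. Roughly 10 days later, plants were compared with untreated controls and rated for injury from 0 (no effect) to 100 (complete control).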

kochia (Kochia scoparia) [5] = test: Test A preemergence, visual plant response rating; conditions: for Kochia plant response rating: 125 g ai/ha, preemergence, 0 to 100 scale, 0 no effect, 100 complete control; for Kochia plant response rating (0 to 100 scale): approx. 10 days
Method in brief: as §2

[6] = tested on: barnyardgrass (Echinochloa crus-galli); test: Test A preemergence, visual plant response rating; conditions: for Barnyardgrass plant response rating: 125 g ai/ha, preemergence, 0 to 100 scale, 0 no effect, 100 complete control; for Barnyardgrass plant response rating (0 to 100 scale): approx. 10 days
Method in brief: as §2

[7] = tested on: Italian ryegrass (Lolium multiflorum); test: Test A preemergence, visual plant response rating; conditions: for Ryegrass, Italian plant response rating: 125 g ai/ha, preemergence, 0 to 100 scale, 0 no effect, 100 complete control; for Ryegrass, Italian plant response rating (0 to 100 scale): approx. 10 days
Method in brief: as §2

[8] = tested on: pigweed (Amaranthus retroflexus); test: Test A preemergence, visual plant response rating; conditions: for Pigweed plant response rating: 125 g ai/ha, preemergence, 0 to 100 scale, 0 no effect, 100 complete control; for Pigweed plant response rating (0 to 100 scale): approx. 10 days
Method in brief: as §2

[9] = tested on: ragweed (common ragweed, Ambrosia elatior); test: Test A preemergence, visual plant response rating; conditions: for Ragweed plant response rating: 125 g ai/ha, preemergence, 0 to 100 scale, 0 no effect, 100 complete control; for Ragweed plant response rating (0 to 100 scale): approx. 10 days
Method in brief: as §2

[10] = tested on: foxtail, giant (giant foxtail, Setaria faberii); test: Test A postemergence, visual plant response rating; conditions: for Foxtail, Giant plant response rating (0 to 100 scale): 500 g ai/ha, postemergence, 0 is no effect, 100 is complete control; for Foxtail, Giant plant response rating: Postemergence, 125 g ai/ha, 0 to 100 scale (0 no effect, 100 complete control)
Method in brief: as §2

[11] = tested on: galium (catchweed bedstraw, Galium aparine); test: Test A postemergence, visual plant response rating; conditions: for Galium plant response rating (0 to 100 scale): 500 g ai/ha, postemergence, 0 is no effect, 100 is complete control; for Galium plant response rating: Postemergence, 125 g ai/ha, 0 to 100 scale (0 no effect, 100 complete control)
Method in brief: as §2

corn (Zea mays) = test: Test A postemergence, visual plant response rating; conditions: for Corn plant response rating (0 to 100 scale): 500 g ai/ha, postemergence, 0 is no effect, 100 is complete control; for Corn plant response rating: Postemergence, 125 g ai/ha, 0 to 100 scale (0 no effect, 100 complete control)
Method in brief: as §2

[12] = tested on: wheat (Triticum aestivum); test: Test A postemergence, visual plant response rating; conditions: for Wheat plant response rating (0 to 100 scale): 500 g ai/ha, postemergence, 0 is no effect, 100 is complete control; for Wheat plant response rating: Postemergence, 125 g ai/ha, 0 to 100 scale (0 no effect, 100 complete control)
Method in brief: as §2

kochia (Kochia scoparia) [13] = test: Test A postemergence, visual plant response rating; conditions: for Kochia plant response rating (0 to 100 scale): 500 g ai/ha, postemergence, 0 is no effect, 100 is complete control; for Kochia plant response rating: Postemergence, 125 g ai/ha, 0 to 100 scale (0 no effect, 100 complete control)
Method in brief: as §2

[14] = tested on: blackgrass (Alopecurus myosuroides); test: Test A postemergence, visual plant response rating; conditions: for Blackgrass plant response rating (0 to 100 scale): 500 g ai/ha, postemergence, 0 is no effect, 100 is complete control; for Blackgrass plant response rating: Postemergence, 125 g ai/ha, 0 to 100 scale (0 no effect, 100 complete control)
Method in brief: as §2

[15] = tested on: barnyardgrass (Echinochloa crus-galli); test: Test A postemergence, visual plant response rating; conditions: for Barnyardgrass plant response rating (0 to 100 scale): 500 g ai/ha, postemergence, 0 is no effect, 100 is complete control; for Barnyardgrass plant response rating: Postemergence, 125 g ai/ha, 0 to 100 scale (0 no effect, 100 complete control)
Method in brief: as §2

[16] = tested on: Italian ryegrass (Lolium multiflorum); test: Test A postemergence, visual plant response rating; conditions: for Ryegrass, Italian plant response rating (0 to 100 scale): 500 g ai/ha, postemergence, 0 is no effect, 100 is complete control; for Ryegrass, Italian plant response rating: Postemergence, 125 g ai/ha, 0 to 100 scale (0 no effect, 100 complete control)
Method in brief: as §2

[17] = tested on: pigweed (Amaranthus retroflexus); test: Test A postemergence, visual plant response rating; conditions: for Pigweed plant response rating (0 to 100 scale): 500 g ai/ha, postemergence, 0 is no effect, 100 is complete control; for Pigweed plant response rating: Postemergence, 125 g ai/ha, 0 to 100 scale (0 no effect, 100 complete control)
Method in brief: as §2

[18] = tested on: ragweed (common ragweed, Ambrosia elatior); test: Test A postemergence, visual plant response rating; conditions: for Ragweed plant response rating (0 to 100 scale): 500 g ai/ha, postemergence, 0 is no effect, 100 is complete control; for Ragweed plant response rating: Postemergence, 125 g ai/ha, 0 to 100 scale (0 no effect, 100 complete control)
Method in brief: as §2

| Structure (SMILES) | Plant response rating, Ducksalad (0 to 100 scale, 0 is no effect, 100 is complete control) [1] | Plant response rating, Sedge, Umbrella (0 to 100 scale, 0 is no effect, 100 is complete control) [2] | Plant response rating, Rice (0 to 100 scale, 0 is no effect, 100 is complete control) (rice (Oryza sativa)) | Plant response rating, Barnyardgrass (0 to 100 scale, 0 is no effect, 100 is complete control) [3] | Foxtail, Giant plant response rating (0 to 100 scale) ([4]; 500 g ai/ha Preemergence) | Kochia plant response rating (0 to 100 scale) (kochia (Kochia scoparia) [5]; 500 g ai/ha Preemergence) | Barnyardgrass plant response rating (0 to 100 scale) ([6]; 500 g ai/ha Preemergence) | Ryegrass, Italian plant response rating (0 to 100 scale) ([7]; 500 g ai/ha Preemergence) | Pigweed plant response rating (0 to 100 scale) ([8]; 500 g ai/ha Preemergence) | Ragweed plant response rating (0 to 100 scale) ([9]; 500 g ai/ha Preemergence) | Foxtail, Giant plant response rating (0 to 100 scale) [10] | Foxtail, Giant plant response rating [10] | Galium plant response rating (0 to 100 scale) [11] | Galium plant response rating [11] | Corn plant response rating (0 to 100 scale) (corn (Zea mays)) | Corn plant response rating (corn (Zea mays)) | Wheat plant response rating (0 to 100 scale) [12] | Wheat plant response rating [12] | Kochia plant response rating (0 to 100 scale) (kochia (Kochia scoparia) [13]) | Kochia plant response rating (kochia (Kochia scoparia) [13]) | other results |
| --- | --- | --- | --- | --- | --- | --- | --- | --- | --- | --- | --- | --- | --- | --- | --- | --- | --- | --- | --- | --- | --- |
| CCO/N=C(/c1c(O)c(C)nn(C)c1=O)c1cc(Br)cc2ccccc12 [Compound 113, 4-[(E)-(3-bromo-1-naphthalenyl)(ethoxyimino)methyl]-5-hydroxy-2,6-dimethyl-3(2H)-pyridazinone] | 75 | 50 | 60 | 85 | 100 | 90 | 100 | 100 | 100 | 90 | 90 | 90 | 100 | 100 | 80 | 40 | 60 | 50 | 90 | 60 | Foxtail, Giant plant response rating [4]: 100; Kochia plant response rating (kochia (Kochia scoparia) [5]): 30; Barnyardgrass plant response rating [6]: 90; Ryegrass, Italian plant response rating [7]: 80; Pigweed plant response rating [8]: 80; Ragweed plant response rating [9]: 90; Blackgrass plant response rating (0 to 100 scale) [14]: 100; Blackgrass plant response rating [14]: 90; Barnyardgrass plant response rating (0 to 100 scale) [15]: 90; Barnyardgrass plant response rating [15]: 90; Ryegrass, Italian plant response rating (0 to 100 scale) [16]: 90; Ryegrass, Italian plant response rating [16]: 80; Pigweed plant response rating (0 to 100 scale) [17]: 100; Pigweed plant response rating [17]: 100; Ragweed plant response rating (0 to 100 scale) [18]: 100; Ragweed plant response rating [18]: 90 |
| CO/N=C(/c1c(O)c(C)nn(C)c1=O)c1ccc(F)c2ccccc12 [Compound 75] | 0 | 0 | 0 | 0 | 100 | 90 | 90 | 100 | 90 | 100 | 80 | 50 | 100 | 100 | 20 | 10 | 80 | 60 | 90 | 70 | Foxtail, Giant plant response rating [4]: 70; Kochia plant response rating (kochia (Kochia scoparia) [5]): 10; Barnyardgrass plant response rating [6]: 30; Ryegrass, Italian plant response rating [7]: 100; Pigweed plant response rating [8]: 60; Ragweed plant response rating [9]: 80; Blackgrass plant response rating (0 to 100 scale) [14]: 100; Blackgrass plant response rating [14]: 90; Barnyardgrass plant response rating (0 to 100 scale) [15]: 70; Barnyardgrass plant response rating [15]: 20; Ryegrass, Italian plant response rating (0 to 100 scale) [16]: 100; Ryegrass, Italian plant response rating [16]: 90; Pigweed plant response rating (0 to 100 scale) [17]: 90; Pigweed plant response rating [17]: 70; Ragweed plant response rating (0 to 100 scale) [18]: 100; Ragweed plant response rating [18]: 90 |
| CO/N=C(\c1cscc1C)c1c(O)c(C)nn(C)c1=O [Compound 52] | 0 | 0 | 0 | 0 | 10 | 20 | 10 | 40 | 80 | 30 | 20 | 10 | 80 | 70 | 0 | 0 | 0 | 0 | 60 | 20 | Foxtail, Giant plant response rating [4]: 0; Kochia plant response rating (kochia (Kochia scoparia) [5]): 0; Barnyardgrass plant response rating [6]: 0; Ryegrass, Italian plant response rating [7]: 0; Pigweed plant response rating [8]: 60; Ragweed plant response rating [9]: 0; Blackgrass plant response rating (0 to 100 scale) [14]: 30; Blackgrass plant response rating [14]: 0; Barnyardgrass plant response rating (0 to 100 scale) [15]: 30; Barnyardgrass plant response rating [15]: 10; Ryegrass, Italian plant response rating (0 to 100 scale) [16]: 80; Ryegrass, Italian plant response rating [16]: 10; Pigweed plant response rating (0 to 100 scale) [17]: 90; Pigweed plant response rating [17]: 70; Ragweed plant response rating (0 to 100 scale) [18]: 90; Ragweed plant response rating [18]: 60 |
| CO/N=C(/c1cccc(F)c1)c1c(O)c(C)nn(C)c1=O [Compound 32] | 0 | 0 | 0 | 0 | 0 | 10 | 0 | 50 | 50 | 40 | 20 | 10 | 80 | 70 | 0 | 0 | 10 | 0 | 70 | 20 | Foxtail, Giant plant response rating (0 to 100 scale) ([4]; 125 g ai/ha Preemergence): 0; Kochia plant response rating (0 to 100 scale) (kochia (Kochia scoparia) [5]; 125 g ai/ha Preemergence): 0; Barnyardgrass plant response rating (0 to 100 scale) ([6]; 125 g ai/ha Preemergence): 0; Ryegrass, Italian plant response rating (0 to 100 scale) ([7]; 125 g ai/ha Preemergence): 20; Pigweed plant response rating (0 to 100 scale) ([8]; 125 g ai/ha Preemergence): 0; Ragweed plant response rating (0 to 100 scale) ([9]; 125 g ai/ha Preemergence): 20; Blackgrass plant response rating (0 to 100 scale) [14]: 20; Blackgrass plant response rating [14]: 0; Barnyardgrass plant response rating (0 to 100 scale) [15]: 20; Barnyardgrass plant response rating [15]: 10; Ryegrass, Italian plant response rating (0 to 100 scale) [16]: 60; Ryegrass, Italian plant response rating [16]: 40; Pigweed plant response rating (0 to 100 scale) [17]: 40; Pigweed plant response rating [17]: 40; Ragweed plant response rating (0 to 100 scale) [18]: 80; Ragweed plant response rating [18]: 50 |
